In patent publication US20030086923A1, “Method for the prevention and/or treatment of atherosclerosis” (priority 1999, published 2003):
Blank lines part the entries; values can stand above or below the compound they belong to.

What was measured:
[1] = molecular target: T1, human GST-LXRβ ligand binding domain receptor (Homo sapiens, UniProt P55055); experiment: Radioligand competition binding scintillation proximity assay, LXRβ
T1 construct: human LXRβ (amino acids 149-455) were subcloned into the pGEX-KT expression vector; made in house; host or cells: E. coli (pGEX-KT vector)
T1 sequence (P55055 149-455): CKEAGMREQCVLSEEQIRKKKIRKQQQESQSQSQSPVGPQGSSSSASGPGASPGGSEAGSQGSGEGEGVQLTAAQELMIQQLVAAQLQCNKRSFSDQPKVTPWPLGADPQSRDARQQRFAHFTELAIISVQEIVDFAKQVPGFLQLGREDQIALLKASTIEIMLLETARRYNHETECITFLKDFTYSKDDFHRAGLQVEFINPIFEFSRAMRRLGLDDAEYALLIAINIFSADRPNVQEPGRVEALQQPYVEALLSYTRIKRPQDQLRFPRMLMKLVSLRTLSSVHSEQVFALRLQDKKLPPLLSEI
From the text: (§1) Radioligand Competition Binding Scintillation Proximity Assays:
(§2) Preparation of Recombinant Human LXRα and LXRβ:
(§3) Human LXRα and LXRβ were expressed as GST-fusion proteins in E. coli. The ligand binding domain cDNAs for human LXRα (amino acids 164-447) and human LXRβ (amino acids 149-455) were subcloned into the pGEX-KT expression vector (Pharmacia). E. coli containing the respective plasmids were propagated, induced, and harvested by centrifugation. The resuspended pellet was broken in a French press and debris was removed by centrifugation. Recombinant human LXR receptors were purified by affinity chromatography on glutathione sepharose and receptor was eluted with glutathione. Glycerol was added to a final concentration of 50% to stabilize the receptor and aliquots were stored at −80° C.
(§4) After incubation for ˜16 h at 15° C. with shaking, the assay plates were counted in a Packard Topcount.

human GST-LXRα receptor = molecular target: T2, human GST-LXRα receptor (Homo sapiens, UniProt Q13133); experiment: Radioligand competition binding scintillation proximity assay, LXRα
T2 construct: made in house; host or cells: E. coli (pGEX-KT vector)
T2 sequence (Q13133 164-447): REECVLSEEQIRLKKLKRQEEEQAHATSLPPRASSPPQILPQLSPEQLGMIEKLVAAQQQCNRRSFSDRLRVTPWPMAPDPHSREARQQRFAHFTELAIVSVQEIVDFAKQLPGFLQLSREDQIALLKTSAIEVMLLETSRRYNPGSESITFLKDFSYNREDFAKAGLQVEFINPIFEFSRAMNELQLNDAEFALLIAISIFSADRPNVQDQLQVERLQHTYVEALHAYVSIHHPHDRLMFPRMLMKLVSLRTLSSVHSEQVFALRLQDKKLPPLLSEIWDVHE
From the text: as §1, §2, §3, §4

THP-1 macrophages = experiment: Stimulation of cholesterol efflux from cultured THP-1 macrophages; type: cell-based, human; details: for EC50: Homo sapiens, THP-1
From the text: Stimulation of Cholesterol Efflux from Cultured Cells
Patients with Tangier disease have mutations in the ABC1 gene and have very low HDL levels. Cultured cells from these patients are defective in cholesterol efflux (Francis et al. (1995) J. Clin. Invest. 96:78-87). Therefore, induction of ABC1 mRNA should lead to increased cholesterol efflux and increased HDL levels (Francis et al. (1999) Clinica Chimica Acta 286:219-230). TIIP-1 cells were used to determine whether induction of ABC1 mRNA by Compound 1 would increase cholesterol efflux. Specifically, cultured human THP-1 cells were stimulated to differentiate into macrophages by incubation with 100 nM tetradecanoyl phorbol acetate for three days, as described above. After differentiation, the TUP-1 macrophages were labeled with ^3H-cholesterol by incubation for 24 hours with 10 μCi/ml ^3H-cholesterol in Complete RPMI media containing 0.1% lipid-free bovine serum albumin (BSA) plus 100 nM tetradecanoyl phorbol acetate. After labeling, the cells were incubated for 24 hours in Complete RPMI media with 0.1% lipid-free bovine serum albumin (BSA) to allow for equilibration of cellular cholesterol pools. Cholesterol efflux was then measured over the following 24 hours by incubating the cells in Complete RPMI media containing 10 μg/ml of apoA-I as cholesterol acceptor, and either Compound 1 or DMSO as control.

LXRα-GAL4 fusion protein = molecular target: T3, LXRα-GAL4 fusion protein (Homo sapiens, UniProt Q13133); experiment: LXRα/GAL4 transactivation assay in HEK-293 cells; type: cell-based; details: 48 h
T3 construct: expressed in transfected cells; host or cells: HEK-293 (pcDNA3-LXRα/GAL4)
T3 sequence (Q13133 209-447 limits assumed): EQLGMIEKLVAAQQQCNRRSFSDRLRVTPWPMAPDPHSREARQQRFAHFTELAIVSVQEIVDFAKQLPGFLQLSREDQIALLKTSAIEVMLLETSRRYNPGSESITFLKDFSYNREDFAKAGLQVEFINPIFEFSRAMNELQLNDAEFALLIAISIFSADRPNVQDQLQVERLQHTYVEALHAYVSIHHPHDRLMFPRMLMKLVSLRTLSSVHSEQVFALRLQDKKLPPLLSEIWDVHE
Method: (§5) Expression constructs were prepared by inserting the ligand binding domain (LBD) of human LXRα and LXRβ cDNAs adjacent to the yeast GAL4 transcription factor DNA binding domain (DBD) in the mammalian expression vector pcDNA3 to create pcDNA3-LXRα/GAL4 and pcDNA3-LXRβ/GAL4, respectively. The GAL4-responsive reporter construct, pUAS(5×)-tk-luc, contained 5 copies of the GAL4 response element placed adjacent to the thymidine kinase minimal promoter and the luciferase reporter gene. The transfection control vector, pEGFP-N1, contained the Green Fluorescence Protein (GFP) gene under the regulation of the cytomegalovirus promoter.
(§6) HEK-293 cells were seeded at 40,000 cells/well in 96 well plates in Dulbecco's modified Eagle medium (high glucose) containing 10% charcoal stripped fetal calf serum (FCS), 100 units/ml Penicillin G and 100 μg/ml Streptomycin sulfate at 37° C. in a humidified atmosphere of 5% CO2. After 24 h, transfections were performed with Lipofectamine (Gibco-BRL, Gaithersburg, Md.) according to the instructions of the manufacturer. […] Luciferase activity in cell extracts was determined using Luciferase Assay Buffer (Promega) in a ML3000 luminometer (Dynatech Laboratories). GFP expression was determined using the Tecan Spectrofluor Plus at excitation wavelength of 485 nm and emission at 535 nm. […]

[2] = HDL-raising activity in hamsters; type: in vivo, hamster; details: oral gavage 10 mg per kg twice per day, seven days, p=0.01
Method: HDL-Raising Activity: Hamsters were given Compound 4 by oral gavage at 10 mg per kg body weight, twice per day, for seven days. Blood was then collected and serum HDL cholesterol measured.

LXRβ-GAL4 fusion protein = molecular target: T4, LXRβ-GAL4 fusion protein (Homo sapiens, UniProt P55055); experiment: LXRβ/GAL4 transactivation assay in HEK-293 cells; type: cell-based; details: 48 h
T4 construct: expressed in transfected cells; host or cells: HEK-293 (pcDNA3-LXRβ/GAL4)
T4 sequence (P55055 222-460 limits assumed): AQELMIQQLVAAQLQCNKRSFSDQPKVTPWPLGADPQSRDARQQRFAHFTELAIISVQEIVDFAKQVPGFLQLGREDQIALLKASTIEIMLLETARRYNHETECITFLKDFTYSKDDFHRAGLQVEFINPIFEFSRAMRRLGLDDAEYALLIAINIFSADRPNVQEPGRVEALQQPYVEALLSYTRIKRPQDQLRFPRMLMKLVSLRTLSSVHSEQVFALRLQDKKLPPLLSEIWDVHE
Method: as §5, §6

ABC1 mRNA = experiment: Induction of ABC1 mRNA levels in THP-1 macrophages; type: cell-based; details: Homo sapiens, ABC-1, 15 μM, 6 hours, vs DMSO control, read-out: Fold Induction of ABC1 mRNA (Mean ± SEM)
Method: Induction of ABC1 mRNA levels
Cultured human THP-1 cells were used. All cell culture incubations were performed at 37° C. under 95% air/5% carbon dioxide. Cells were grown in Complete RPMI medium plus 10% FCS (Fetal Calf Serum). Complete RPMI medium is defined as RPMI medium (Sigma Cat.# R8005) containing […], 1 mM Na Pyruvate, 2 mM L-Glutamine, and Antibiotic-Antimyotic Solution (Sigma Cat.# A9909: 100U/ml Penicillin, 0.1 mg/ml Streptomycin, 0.251l/ml Amphotericin B). Cells were differentiated into macrophages by incubation in Complete RPMI medium plus 10% FCS (Fetal Calf Serum) plus 100 nM tetradecanoyl phorbol acetate for three days. After differentiation, the THP-1 macrophages were incubated in Complete RPMI medium plus 10% FCS (Fetal Calf Serum) with the test LXR agonist. After 6 hours at 37° C., the cells were harvested and total RNA prepared using the phenol/guanidine isothiocyanate method as supplied and described by Molecular Research Center, Inc. (TRI REAGENTφ Cat. No. TR 118). ABC1 mRNA levels in the total RNA were measured using the TaqMan® mRNA quantitation system, following protocols published by the manufacturer (Perkin-Elmer). The oligonucleotide PCR primers used to detect ABC1 were:
The oligonucleotide probe used was:
ABC1 mRNA levels in each sample were normalized to the mRNA levels for the 23 kDa highly basic protein. […]

LXR = experiment: Activity on LXR (assay not specified)

SMILES: CCCc1c(OCCCN2C(=O)CCNC2=O)ccc2c(C(F)(F)F)noc12 [Compound 4, 4,5-Dihydro-1-(3-(3-trifluoromethyl-7-propyl-benzisoxazol-6-yloxy)propyl)-2,6-pyrimidinedione]
- IC50 [1]: 72 nM
- IC50 (human GST-LXRα receptor): 1 nM
- EC50 (THP-1 macrophages): 63 nM
- EC50 (LXRα-GAL4 fusion protein): 183 nM
- Increase of serum HDL cholesterol levels vs vehicle control [2]: 21%
- EC50 (LXRβ-GAL4 fusion protein): 360 nM

SMILES: CC(C)CC[C@@H](O)[C@@H](C)[C@H]1CC[C@H]2[C@@H]3CC=C4C[C@@H](O)CC[C@]4(C)[C@H]3CC[C@]12C [Compound 2, 22(R)-hydroxycholesterol, reference compound]
- fold induction at 15 µM (ABC1 mRNA): 6.7 ± 1.2
- Stimulation of cholesterol efflux (THP-1 macrophages; 5 μM, p<0.001): 57%

SMILES: CC(C)CC[C@H](O)[C@@H](C)[C@H]1CC[C@H]2[C@@H]3CC=C4C[C@@H](O)CC[C@]4(C)[C@H]3CC[C@]12C [22-(S)-hydroxy-cholesterol, reference compound]
- Stimulation of cholesterol efflux (in words) (THP-1 macrophages): did not stimulate cholesterol efflux at all
- Activity on LXR (in words) (LXR): inactive

- IC50 [1]: 442 nM
- IC50 (human GST-LXRα receptor): 112 nM
- EC50 (THP-1 macrophages): 120 nM
SMILES: CC(C)N(C(=O)[C@H]1CCC2C3CC=C4N(C)C(=O)CCC4(C)C3CCC21C)C(C)C (stereo partly shown) [Compound 3]
